Measured values reported in US20260199323A1, “LIGAND COMPOUNDS FOR E3 UBIQUITIN LIGASE, PROTEIN DEGRADERS DEVELOPED ON BASIS OF LIGAND COMPOUNDS, AND USES THEREOF” (GLUETACS THERAPEUTICS (SHANGHAI) CO., LTD., priority 2021, published 2026).
Read-outs that look alike come from different tables or passages of the source.

What was measured:
22RV1 = assay: CCK-8 tumor cell proliferation, 22RV1; parameters: species or system Human; conditions: Table 7, designed based on BTK inhibitors, 96 h
Method: (§1) The tumor cells used herein were cultured in a cell culture medium listed in table 4 at 37° C. in an incubator with 5% CO2. Prior to experimentation, all cells used were correctly identified by STR profiling, and tested negative for mycoplasma through routine screenings.
(§2) IC50 values of the compounds of the present disclosure (including the compounds in Tables 1 and 3, and compounds of examples) were measured using the Meilun Cell Counting Kit-8 kit from Dalian Meilun Biotech Co., Ltd. Assay details are as follows: tumor cells were seeded in a 96-well plate at a density listed in Table 5. After 24 h, 100 μL of the inoculated cells were treated with 0.5 μL of the compounds of the present disclosure (including the compounds in Tables 1 and 3, and compounds of examples) at 10 different successively decreasing concentrations (starting at the highest concentration of 10 μM; 5-fold serial dilutions). After the cells were treated with the compounds of the present disclosure for a period of time, the cell viability detection reagent was added to the culture medium for cell viability assessment according to the instructions provided with the CCK-8 kit. […] The growth inhibition of the compounds of the present disclosure on cells was plotted by Prism Graphpad software, and the IC50 values of the compounds of the present disclosure were calculated therefrom.

MDA-MB-231 = assay: CCK-8 tumor cell proliferation, MDA-MB-231; format: cell-based, Human; parameters: IC50 for inhibiting the proliferation of tumor cells, MDA-MB-231: scale not given here; conditions: Table 7, designed based on BTK inhibitors, 96 h
Procedure, shortened: (§3)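 Proliferation was measured by CCK-8. Plated cells received compound 24 h later at ten 5-fold dilutions beginning at 10 μM.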

MM.1S = assay: CCK-8 tumor cell proliferation, MM.1S; format: cell-based; conditions: for IC50: Homo sapiens, MM1.S
Procedure, shortened: as §3

Mino = assay: CCK-8 tumor cell proliferation, Mino; format: cell-based, Human; conditions: Table 7, designed based on BTK inhibitors; 72 h
Procedure, shortened: as §3

MV-4-11 = assay: CCK-8 tumor cell proliferation, MV-4-11; format: cell-based, Human; conditions: Table 7, designed based on BTK inhibitors; 72 h
Procedure, shortened: as §3

THP-1 = assay: CCK-8 tumor cell proliferation, THP-1; format: cell-based, Human; conditions: 72 h
Method: as §1, §2

Kasumi-1 = assay: CCK-8 tumor cell proliferation, Kasumi-1; format: cell-based, Human; conditions: Table 7, designed based on BTK inhibitors; 72 h
Procedure, shortened: as §3

Vcap = assay: CCK-8 tumor cell proliferation, Vcap; format: cell-based, Human; conditions: for IC50: Homo sapiens, VCaP
Method: as §1, §2

CCRF-CEM = assay: CCK-8 tumor cell proliferation, CCRF-CEM; format: cell-based, Human; parameters: IC50 for inhibiting the proliferation of tumor cells, CCRF-CEM: scale not given here; conditions: for IC50: Homo sapiens, CCRF-CEM
Procedure, shortened: as §3

NCI-H1975 = assay: CCK-8 tumor cell proliferation, NCI-H1975; format: cell-based, Human; conditions: Table 7, designed based on BTK inhibitors; 96 h
Method: as §1, §2

CAL-62 = assay: CCK-8 tumor cell proliferation, CAL-62; format: cell-based, Human; conditions: Homo sapiens; Table 18, FAK inhibitor based; CAL-62; read-out: IC50 inhibiting proliferation of tumor cells, CAL-62
Procedure, shortened: as §3

MGC-803 = assay: CCK-8 tumor cell proliferation, MGC-803; conditions: Homo sapiens, Table 18, FAK inhibitor based, MGC803, read-out: IC50 inhibiting proliferation of tumor cells, MGC803
Method: as §1, §2

SW620 = assay: CCK-8 tumor cell proliferation, SW620; format: cell-based, Human; conditions: Homo sapiens, SW-620; Table 18, FAK inhibitor based; SW620; read-out: IC50 inhibiting proliferation of tumor cells, SW620
Procedure, shortened: as §3

Hep3B2.7-1 = assay: CCK-8 tumor cell proliferation, Hep3B2.7-1; format: cell-based, Human; conditions: Homo sapiens; Table 18, FAK inhibitor based; HEP3B2.7-1; read-out: IC50 inhibiting proliferation of tumor cells, HEP3B2.7-1
Procedure, shortened: as §3

[1] = Table 7, designed based on BTK inhibitors, 72 h
[2] = Table 7, designed based on BTK inhibitors, 96 h
[3] = Table 18, FAK inhibitor based, Vcap, read-out: IC50 inhibiting proliferation of tumor cells, Vcap
[4] = Table 18, FAK inhibitor based, MM.1S, read-out: IC50 inhibiting proliferation of tumor cells, MM.1S
[5] = Table 18, FAK inhibitor based, read-out: IC50 inhibiting proliferation of tumor cells, CCRF-CEM
[6] = Table 11, designed based on EGFR inhibitors, 96 h

Structure (SMILES): Nc1ncnc2c1c(-c1ccc(Oc3ccccc3)cc1)nn2C1CCN(Cc2ccc3c(c2)CN(C2CCC(=O)NC2=O)C3=O)CC1F (centres unmarked) [GT-02652, 3-(5-((4-(4-amino-3-(4-phenoxyphenyl)-1H-pyrazolo[3,4-d]pyrimidin-1-yl)-3-fluoropiperidin-1-yl)methyl)-1-oxoisoindolin-2-yl)piperidine-2,6-dione]
- IC50 for inhibiting the proliferation of tumor cells, 22RV1 (22RV1): A+
- IC50 for inhibiting the proliferation of tumor cells, MDA-MB-231 (MDA-MB-231): A+
- IC50 for inhibiting the proliferation of tumor cells, MM.1S (MM.1S; [1]): A+
- IC50 for inhibiting the proliferation of tumor cells, Mino (Mino): A+
- IC50 for inhibiting the proliferation of tumor cells, MV-4-11 (MV-4-11): A+

Structure (SMILES): Nc1ncnc2c1c(-c1ccc(Oc3ccccc3)cc1)nn2C1CCN(Cc2ccc3c(c2F)CN(C2CCC(=O)NC2=O)C3=O)CC1 (centres unmarked) [GT-03472, 3-(5-((4-(4-amino-3-(4-phenoxyphenyl)-1H-pyrazolo[3,4-d]pyrimidin-1-yl)piperidin-1-yl)methyl)-4-fluoro-1-oxoisoindolin-2-yl)piperidine-2,6-dione]
- IC50 for inhibiting the proliferation of tumor cells, MDA-MB-231 (MDA-MB-231): A+
- IC50 for inhibiting the proliferation of tumor cells, MM.1S (MM.1S; [1]): A+
- IC50 for inhibiting the proliferation of tumor cells, THP-1 (THP-1; Table 7, designed based on BTK inhibitors): A+
- IC50 for inhibiting the proliferation of tumor cells, Kasumi-1 (Kasumi-1): A+
- IC50 for inhibiting the proliferation of tumor cells, Vcap (Vcap; [2]): A+
- IC50 for inhibiting the proliferation of tumor cells, CCRF-CEM (CCRF-CEM; [2]): A+
- IC50 for inhibiting the proliferation of tumor cells, NCI-H1975 (NCI-H1975): A+

Structure (SMILES): CNC(=O)c1ccccc1Nc1cc(Nc2cc(C)c(N3CCN(Cc4cc5c(cc4F)C(=O)N(C4CCC(=O)NC4=O)C5)CC3)cc2OC(C)C)ncc1C(F)(F)F (centres unmarked) [GT-03942, 2-((2-((4-(4-((2-(2,6-dioxopiperidin-3-yl)-6-fluoro-1-oxoisoindolin-5-yl)methyl)piperazin-1-yl)-2-isopropoxy-5-methylphenyl)amino)-5-(trifluoromethyl)pyridin-4-yl)amino)-N-methylbenzamide]
- IC50 (CAL-62): < 50 nM
- IC50 (MGC-803): < 50 nM
- IC50 (Vcap; [3]): < 50 nM
- IC50 (SW620): < 50 nM

Structure (SMILES): CNC(=O)c1ccccc1Nc1cc(Nc2cc(C)c(C3CCN(Cc4ccc5c(c4F)CN(C4CCC(=O)NC4=O)C5=O)CC3)cc2OC(C)C)ncc1C(F)(F)F (centres unmarked) [GT-04079, 2-((2-((4-(1-((2-(2,6-dioxopiperidin-3-yl)-4-fluoro-1-oxoisoindolin-5-yl)methyl)piperidin-4-yl)-2-isopropoxy-5-methylphenyl)amino)-5-(trifluoromethyl)pyridin-4-yl)amino)-N-methylbenzamide]
- IC50 (CAL-62): < 50 nM
- IC50 (Hep3B2.7-1): < 50 nM
- IC50 (MGC-803): 100 to 500 nM
- IC50 (MM.1S; [4]): < 50 nM
- IC50 (Vcap; [3]): < 50 nM
- IC50 (CCRF-CEM; [5]): < 50 nM
- IC50 (SW620): < 50 nM

Structure (SMILES): CNC(=O)c1ccccc1Nc1cc(Nc2cc(C)c(C3CCN(Cc4cc5c(cc4F)C(=O)N(C4CCC(=O)NC4=O)C5)CC3)cc2OC(C)C)ncc1C(F)(F)F (centres unmarked) [GT-04080, 2-((2-((4-(1-((2-(2,6-dioxopiperidin-3-yl)-6-fluoro-1-oxoisoindolin-5-yl)methyl)piperidin-4-yl)-2-isopropoxy-5-methylphenyl)amino)-5-(trifluoromethyl)pyridin-4-yl)amino)-N-methylbenzamide]
- IC50 (CAL-62): < 50 nM
- IC50 (Hep3B2.7-1): < 50 nM
- IC50 (MGC-803): 50 to 100 nM
- IC50 (MM.1S; [4]): < 50 nM
- IC50 (Vcap; [3]): < 50 nM
- IC50 (CCRF-CEM; [5]): < 50 nM
- IC50 (SW620): < 50 nM

Structure (SMILES): CNC(=O)c1ccccc1Nc1cc(Nc2cc(C)c(N3CCC(N(C)Cc4ccc5c(c4)CN(C4CCC(=O)NC4=O)C5=O)CC3)cc2OC(C)C)ncc1C(F)(F)F (centres unmarked) [GT-04090, 2-((2-((4-(4-(((2-(2,6-dioxopiperidin-3-yl)-1-oxoisoindolin-5-yl)methyl)(methyl)amino)piperidin-1-yl)-2-isopropoxy-5-methylphenyl)amino)-5-(trifluoromethyl)pyridin-4-yl)amino)-N-methylbenzamide]
- IC50 (CAL-62): 50 to 100 nM
- IC50 (MGC-803): < 50 nM

Structure (SMILES): CNC(=O)c1ccccc1Nc1cc(Nc2cc(C)c(N3CCC(N(C)Cc4ccc5c(c4F)CN(C4CCC(=O)NC4=O)C5=O)CC3)cc2OC(C)C)ncc1C(F)(F)F (centres unmarked) [GT-04091, 2-((2-((4-(4-(((2-(2,6-dioxopiperidin-3-yl)-4-fluoro-1-oxoisoindolin-5-yl)methyl)(methyl)amino)piperidin-1-yl)-2-isopropoxy-5-methylphenyl)amino)-5-(trifluoromethyl)pyridin-4-yl)amino)-N-methylbenzamide]
- IC50 (CAL-62): < 50 nM
- IC50 (MGC-803): 50 to 100 nM

Structure (SMILES): CNC(=O)c1ccccc1Nc1cc(Nc2cc(C)c(N3CCC(N(C)Cc4cc5c(cc4F)C(=O)N(C4CCC(=O)NC4=O)C5)CC3)cc2OC(C)C)ncc1C(F)(F)F (centres unmarked) [GT-04092, 2-((2-((4-(4-(((2-(2,6-dioxopiperidin-3-yl)-6-fluoro-1-oxoisoindolin-5-yl)methyl)(methyl)amino)piperidin-1-yl)-2-isopropoxy-5-methylphenyl)amino)-5-(trifluoromethyl)pyridin-4-yl)amino)-N-methylbenzamide]
- IC50 (CAL-62): 100 to 500 nM
- IC50 (MGC-803): < 50 nM

Structure (SMILES): CNC(=O)c1ccccc1Nc1cc(Nc2cc(C)c(N3CCC(N(C)Cc4cc(F)c5c(c4)CN(C4CCC(=O)NC4=O)C5=O)CC3)cc2OC(C)C)ncc1C(F)(F)F (centres unmarked) [GT-04093, 2-((2-((4-(4-(((2-(2,6-dioxopiperidin-3-yl)-7-fluoro-1-oxoisoindolin-5-yl)methyl)(methyl)amino)piperidin-1-yl)-2-isopropoxy-5-methylphenyl)amino)-5-(trifluoromethyl)pyridin-4-yl)amino)-N-methylbenzamide]
- IC50 (CAL-62): 50 to 100 nM
- IC50 (MGC-803): < 50 nM

Structure (SMILES): O=C1CCC(N2Cc3cc(CN4CCC(N5CCN(c6ccc(-c7cc(F)c8c(c7)C(=O)N(C(C(=O)Nc7nccs7)c7ncn9c7CCC9)C8)cc6)CC5)C(F)(F)C4)ccc3C2=O)C(=O)N1 (centres unmarked) [GT-04459, 2-(6,7-dihydro-5H-pyrrolo[1,2-c]imidazol-1-yl)-2-(6-(4-(4-(1-((2-(2,6-dioxopiperidin-3-yl)-1-oxoisoindolin-5-yl)methyl)-3,3-difluoropiperidin-4-yl)piperazin-1-yl)phenyl)-4-fluoro-1-oxoisoindolin-2-yl)-N-(thiazol-2-yl)acetamide]
- IC50 for inhibiting the proliferation of tumor cells, THP-1 (THP-1; Table 11, designed based on EGFR inhibitors): A+
- IC50 for inhibiting the proliferation of tumor cells, Vcap (Vcap; [6]): A+
- IC50 for inhibiting the proliferation of tumor cells, CCRF-CEM (CCRF-CEM; [6]): A+

Structure (SMILES): C=CC(=O)N1CCC[C@@H](n2nc(-c3ccc(Oc4ccccc4)cc3)c3c(N)ncnc32)C1 [ibrutinib, Ibrutinib, reference compound]
- IC50 (22RV1; Homo sapiens, 22Rv1, read-out: IC50 for inhibiting the proliferation of tumor cells, 22RV1): > 10000 nM
- IC50 (MDA-MB-231; Homo sapiens, MDA-MB-231, read-out: IC50 for inhibiting the proliferation of tumor cells, MDA-MB-231): > 10000 nM
- IC50 (MM.1S; Table 7, designed based on BTK inhibitors, 72 h, read-out: IC50 for inhibiting the proliferation of tumor cells, MM.1S): > 10000 nM
- IC50 (THP-1; Homo sapiens, THP-1, Table 7, designed based on BTK inhibitors, read-out: IC50 for inhibiting the proliferation of tumor cells, THP-1): > 10000 nM
- IC50 (Vcap; 96 h, Table 7, designed based on BTK inhibitors, 96 h, read-out: IC50 for inhibiting the proliferation of tumor cells, Vcap): > 10000 nM
- IC50 (CCRF-CEM; Table 7, designed based on BTK inhibitors, 96 h, read-out: IC50 for inhibiting the proliferation of tumor cells, CCRF-CEM): > 10000 nM
